# Assay results from the supplement of paper PMC10307832.
# Experiments:
# Assay in all cases: relative viability (nuclei count vs DMSO), 5 days (fraction); higher = more cells survive
# VX-11e + Decitabine = compound: CC1=CN=C(N=C1C2=CNC(=C2)C(=O)N[C@H](CO)C3=CC(=CC=C3)Cl)NC4=C(C=C(C=C4)F)Cl [VX-11e] + Nc1ncn([C@H]2C[C@H](O)[C@@H](CO)O2)c(=O)n1 [Decitabine] (partner 2 µM)
# How it was run: (§1)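 Relative viability equals treated-well nuclei counts divided by vehicle-well nuclei counts. Counts came from 4× images of lung cancer cell lines grown in 1536-well plates for 5 days after pin-tool dosing on the day after seeding. Dosing used one drug alone or a fixed anchor-drug dose plus five library-drug doses (not always all listed) in √10 steps, and values are medians of duplicate plates.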
# VX-11e + Olaparib = compound: CC1=CN=C(N=C1C2=CNC(=C2)C(=O)N[C@H](CO)C3=CC(=CC=C3)Cl)NC4=C(C=C(C=C4)F)Cl [VX-11e] + O=C(c1cc(Cc2n[nH]c(=O)c3ccccc23)ccc1F)N1CCN(C(=O)C2CC2)CC1 [Olaparib] (partner 8 µM)
# How it was run: as §1
# VX-11e + Luminespib = compound: CC1=CN=C(N=C1C2=CNC(=C2)C(=O)N[C@H](CO)C3=CC(=CC=C3)Cl)NC4=C(C=C(C=C4)F)Cl [VX-11e] + CCNC(=O)c1noc(-c2cc(C(C)C)c(O)cc2O)c1-c1ccc(CN2CCOCC2)cc1 [Luminespib] (partner 0.01 µM)
# How it was run: as §1
# VX-11e + Lapatinib = compound: CC1=CN=C(N=C1C2=CNC(=C2)C(=O)N[C@H](CO)C3=CC(=CC=C3)Cl)NC4=C(C=C(C=C4)F)Cl [VX-11e] + CS(=O)(=O)CCNCc1ccc(-c2ccc3ncnc(Nc4ccc(OCc5cccc(F)c5)c(Cl)c4)c3c2)o1 [Lapatinib] (partner 2 µM)
# How it was run: as §1
Cell Line,relative viability (VX-11e + Decitabine; first compound 0.04 µM),relative viability (VX-11e + Decitabine; first compound 0.1265 µM),relative viability (VX-11e + Decitabine; first compound 0.4 µM),relative viability (VX-11e + Decitabine; first compound 1.265 µM),relative viability (VX-11e + Decitabine; first compound 4 µM),relative viability (VX-11e + Olaparib; first compound 0.04 µM),relative viability (VX-11e + Olaparib; first compound 0.1265 µM),relative viability (VX-11e + Olaparib; first compound 0.4 µM),relative viability (VX-11e + Olaparib; first compound 1.265 µM),relative viability (VX-11e + Olaparib; first compound 4 µM),relative viability (VX-11e + Luminespib; first compound 0.04 µM),relative viability (VX-11e + Luminespib; first compound 0.1265 µM),relative viability (VX-11e + Luminespib; first compound 1.265 µM),relative viability (VX-11e + Luminespib; first compound 4 µM),relative viability (VX-11e + Lapatinib; first compound 0.04 µM),relative viability (VX-11e + Lapatinib; first compound 0.1265 µM),relative viability (VX-11e + Lapatinib; first compound 0.4 µM),relative viability (VX-11e + Lapatinib; first compound 1.265 µM),relative viability (VX-11e + Lapatinib; first compound 4 µM),relative viability (VX-11e + Luminespib; first compound 0.4 µM)
SK-LU-1,0.619,0.589,0.472,0.668,0.308,0.537,0.446,0.394,0.365,0.239,0.179,0.196,0.199,0.177,0.897,0.744,0.524,0.752,0.272,–
NCI-H650,0.386,0.312,0.325,0.403,0.371,0.512,0.417,0.466,0.486,0.537,0.749,0.8,0.772,0.677,–,0.894,0.944,–,0.909,0.606
NCI-H1355,0.401,0.376,0.34,0.413,0.31,0.735,0.759,0.655,0.554,0.395,0.681,0.683,0.638,0.47,0.613,0.948,0.879,0.728,0.48,0.552
SW 1573,0.384,0.446,0.363,0.372,0.22,0.551,0.472,0.453,0.398,0.23,0.233,0.206,0.384,0.133,1.11,0.979,1.07,0.891,0.472,0.23
NCI-H1395,0.734,0.721,–,0.695,0.62,0.424,0.461,–,0.499,0.388,0.804,0.637,0.682,0.46,0.969,0.864,0.548,0.82,0.716,0.423
NCI-H358,0.232,0.203,0.124,0.222,0.142,0.594,0.525,0.525,0.441,0.163,–,0.312,0.464,0.117,0.41,0.425,–,0.391,0.274,0.208
HCC-827,0.266,0.32,0.342,0.431,0.324,0.556,0.609,0.724,0.768,0.516,0.605,0.422,0.826,0.477,0.191,0.229,0.206,0.205,0.207,0.616
NCI-H2126,0.561,0.608,0.558,0.614,0.573,0.885,0.874,0.864,0.879,0.751,0.824,0.877,0.964,0.737,–,0.752,0.752,0.742,0.599,–
EPLC-272H,0.331,0.337,–,0.29,0.178,0.771,0.833,0.588,0.38,0.219,0.173,0.302,0.293,0.148,0.844,0.577,0.714,0.739,0.48,–
NCI-H1651,0.445,0.633,0.541,0.497,0.59,0.169,0.201,0.209,0.152,0.177,0.977,0.847,0.796,0.672,0.639,0.747,0.634,0.602,0.654,0.784
NCI-H727,0.599,1.07,0.72,0.638,0.421,0.626,0.593,0.747,0.678,0.457,0.293,0.294,0.312,0.371,0.699,0.591,1.19,0.501,0.307,0.291
LOU-NH91,0.829,0.777,–,0.85,0.768,0.887,0.884,–,0.901,0.839,0.394,0.396,0.341,0.312,0.66,0.673,–,0.565,0.667,0.283
HARA,0.491,0.417,0.38,0.365,0.467,0.893,0.705,0.939,0.295,0.525,0.677,0.609,0.695,0.297,0.673,0.653,0.79,0.666,0.374,0.637
NCI-H1793,–,0.406,–,0.516,0.351,–,0.788,–,0.751,0.313,0.178,0.177,0.275,0.15,–,0.611,–,0.397,0.278,–
A-427,0.559,0.518,0.569,0.645,0.443,0.778,0.778,0.816,0.7,0.509,1.05,0.865,0.687,0.483,0.966,0.942,1.03,1.05,0.584,0.642
NCI-H520,0.539,0.533,0.492,0.668,0.476,0.383,0.327,0.326,0.298,0.271,0.205,0.183,0.272,0.207,0.951,0.791,0.687,0.87,0.572,0.19
HCC-44,0.995,0.896,0.939,0.904,1.06,1.02,0.893,0.897,1.05,0.93,1.17,0.96,0.556,0.916,0.986,0.974,0.871,0.836,0.88,0.364
